Converted amounts (≈) assume the structure as drawn.
Tests used:
[1] = Half life in Sprague-Dawley rat at 20 mg/kg, iv; type: ADME, organism-based; conditions: in vivo
ECV-304 [2] = test: Protection against H2O2-induced damage in human ECV304 cells preincubated for 24 hrs followed by H2O2 addition and measured after 12 hrs by MTT assay; type: functional, cell-based
HT-29 [3] = test: Antiproliferative activity against human HT-29 cells after 72 hrs by MTT assay; type: functional, cell-based; conditions: HT-29, 72 h
HepG2 [4] = test: Antiproliferative activity against human HepG2 cells at 10 uM after 72 hrs by MTT assay relative to control; type: functional
Bel-7402 [5] = test: Antiproliferative activity against human Bel7402 cells after 72 hrs by MTT assay; type: functional, cell-based; conditions: Bel-7402, 72 h
MDCK [6] = test: Antiproliferative activity against MDCK cells at 10 uM after 72 hrs by MTT assay relative to control; type: cell-based, Canis lupus familiaris; conditions: dog
HeLa [7] = test: Antiproliferative activity against human HeLa cells after 72 hrs by MTT assay; type: functional, cell-based
MCF7 = test: Antiproliferative activity against human MCF7 cells after 72 hrs by MTT assay; type: functional, cell-based; conditions: MCF7, 72 h
HepG2 [8] = test: Antiproliferative activity against human HepG2 cells after 72 hrs by MTT assay; type: functional, cell-based; conditions: HepG2, 72 h
PC-12 [9] = test: Neuroprotection against CoCl2-induced toxicity in rat PC12 cells preincubated for 36 hrs followed by CoCl2 addition measured after 12 hrs by MTT assay; type: functional, cell-based
Thoracic aorta = test: Vasodilatory activity in Sprague-Dawley rat thoracic aorta rings assessed as reduction in KCl-induced contraction; type: functional, tissue-based
Mus musculus = test: Anti-inflammatory activity in Kunming mouse assessed as inhibition of xylene-induced ear edema at 100 mg/kg, ig administered once daily for 7 days relative to control; type: functional; conditions: po, 168 h
Platelet = test: Antiplatelet activity in rabbit platelet rich plasma assessed as inhibition of ADP-induced platelet aggregation by cytometry; type: functional, cell-based; conditions: Oryctolagus cuniculus
HCT-8 = test: Antiproliferative activity against human HCT8 cells; type: functional, cell-based
A549 = test: Antiproliferative activity against human A549 cells; type: functional, cell-based
BGC-823 = test: Antiproliferative activity against human BGC823 cells; type: functional, cell-based
Bel-7402 [10] = test: Antiproliferative activity against human Bel7402 cells; type: functional, cell-based
A2780 = test: Antiproliferative activity against human A2780 cells; type: functional, cell-based
HUVEC [11] = test: Protection against H2O2-induced damage in HUVEC; type: functional, cell-based; conditions: Homo sapiens
PC-12 [12] = test: Neuroprotection against CoCl2-induced toxicity in rat PC12 cells; type: functional, cell-based
MDCK [13] = test: Antiproliferative activity against MDCK cells; type: cell-based; conditions: Canis lupus familiaris
HeLa [14] = test: Antiproliferative activity against human HeLa cells; type: functional, cell-based
HT-29 [15] = test: Antiproliferative activity against human HT-29 cells; type: functional, cell-based
HepG2 [16] = test: Antiproliferative activity against human HepG2 cells; type: functional, cell-based
HUVEC [17] = test: Protection against H2O2-induced damage in HUVEC preincubated for 0.5 hrs followed by H2O2 addition and measured after 12 hrs; type: functional, cell-based; conditions: Homo sapiens
HUVEC [18] = test: Potency index, ratio of ligustrazine EC50 to compound EC50 for protection against H2O2-induced damage in HUVEC; type: functional, Homo sapiens
[19] = tested on: Staphylococcus epidermidis; test: Antibacterial activity against Staphylococcus epidermidis; type: functional
Staphylococcus aureus = test: Antibacterial activity against Staphylococcus aureus; type: functional
ECV-304 [20] = test: Potency index, ratio of ligustrazine EC50 to compound EC50 for protection against H2O2-induced damage in human ECV304 cells; type: functional

CCOC(=O)/C=C/c1cc(OC)c(OC(=O)c2nc(C)c(C)nc2C)c(OC)c1
half-life [1]: 3.03 h

CNC(=N)NC(=O)c1nc(C)c(C)nc1C
EC50 (ECV-304 [2]): 97 µM

Cc1nc(C)c(COC(=O)[C@]23CC[C@@H](C(C)C)[C@H]2[C@@H]2CC[C@@H]4[C@@]5(C)CC[C@H](O)C(C)(C)[C@@H]5CC[C@@]4(C)[C@]2(C)CC3)nc1C
IC50 (HT-29 [3]): 5.23 µM | Activity (HepG2 [4]): 99.87% | IC50 (Bel-7402 [5]): 4.19 µM | Activity (MDCK [6]): 26.5% | IC50 (HeLa [7]): 4.34 µM | IC50 (MCF7): 4.23 µM | IC50 (HepG2 [8]): 4.48 µM

Cc1nc(C)c(COCc2ccc(OCc3nc(C)c(C)nc3C)cc2)nc1C
EC50 (PC-12 [9]): 1.66 µM

Cc1nc(C)c(COc2ccc(COc3ccc(C=O)cc3)cc2)nc1C
EC50 (Thoracic aorta): 751 µM

Cc1nc(C)c(COC(=O)c2cc(O)c3c(c2)C(=O)c2cccc(O)c2C3=O)nc1C
inhibition in vivo at 100 mg/kg (Mus musculus): 76.4%

COc1ccc(C(=O)NCc2nc(C)c(C)nc2C)cc1C(=O)NCc1nc(C)c(C)nc1C
IC50 (Platelet): 2790 µM

COc1cc(COCc2nc(C)c(C)nc2C)ccc1OCc1nc(C)c(C)nc1C
EC50 (PC-12 [9]): 1.07 µM

COc1cc(/C=C/C(=O)CC(=O)/C=C/c2ccc(OCc3nc(C)c(C)nc3C)c(OC)c2)ccc1OCc1nc(C)c(C)nc1C
IC50 (HCT-8): 7.11 mg/L (≈ 11.2 µM) | IC50 (A549): 5.89 mg/L (≈ 9.25 µM) | IC50 (BGC-823): 5.47 mg/L | IC50 (Bel-7402 [10]): 6.39 mg/L (≈ 10 µM) | IC50 (A2780): 5.54 mg/L (≈ 8.7 µM)

CC(=O)OC(C(=O)NCc1nc(C)c(C)nc1C)c1ccccc1 (configuration not stated)
EC50 (HUVEC [11]): 70 µM

COc1cc(C(=O)OCc2nc(C)c(C)nc2C)ccc1OCc1nc(C)c(C)nc1C
EC50 (PC-12 [12]): 4.25 µM

Cc1nc(C)c(COC(=O)[C@]23CCC(C)(C)C[C@H]2C2=CC[C@@H]4[C@@]5(C)CC[C@H](OC(=O)[C@@H](N)CCCCN)C(C)(C)[C@@H]5CC[C@@]4(C)[C@]2(C)CC3)nc1C
IC50 (MDCK [13]): 2.31 µM | IC50 (BGC-823): 2.48 µM | IC50 (HeLa [14]): 2.38 µM | IC50 (HT-29 [15]): 2.35 µM | IC50 (HepG2 [16]): 2.27 µM

Cc1nc(C)c(CNC(=O)c2ccncc2)nc1C
EC50 (HUVEC [11]): 37 µM

Cc1nc(C)c(COC(=O)[C@]23CCC(C)(C)C[C@H]2C2=CC[C@@H]4[C@@]5(C)CC[C@H](O)C(C)(C)[C@@H]5CC[C@@]4(C)[C@]2(C)CC3)nc1C
IC50 (HeLa [14]): 8.68 µM | IC50 (HT-29 [15]): > 25 µM | IC50 (HepG2 [16]): 21.4 µM

Cc1nc(C)c(/C=C/c2ccccc2Cl)nc1C
EC50 (HUVEC [17]): 0.0249 µM | Ratio EC50 (HUVEC [18]): 30000

Cc1nc(C)c(COc2ccc(N3CC(CNC(=O)CCl)OC3=O)cc2F)nc1C (configuration not stated)
MIC [19]: 4 mg/L (≈ 9.16 µM) | MIC (Staphylococcus aureus): 8 mg/L (≈ 18.3 µM)

COc1cc(C(=O)c2cccc(N(C)C)c2)ccc1OCc1nc(C)c(C)nc1C
EC50 (PC-12 [12]): 17.4 µM

Cc1nc(C)c(C(=O)NC(=N)NCc2cccc(Cl)c2)nc1C
EC50 (ECV-304 [2]): 59 µM | Ratio EC50 (ECV-304 [20]): 10

Cc1nc(C)c(CCOc2cccc3c2C(=O)c2c(OCCc4nc(C)c(C)nc4C)cc(C(=O)O)cc2C3=O)nc1C
inhibition in vivo at 100 mg/kg (Mus musculus): 17.5%

Cc1nc(C)c(C(=O)Oc2ccc(CO[N+](=O)[O-])cc2)nc1C
EC50 (Thoracic aorta): 93 µM

CCOC(=O)c1ccc(OCc2ccc(OCc3nc(C)c(C)nc3C)cc2)cc1
EC50 (Thoracic aorta): 751 µM

Cc1nc(C)c(COCCc2ccc(OCc3nc(C)c(C)nc3C)cc2)nc1C
EC50 (PC-12 [9]): 2.03 µM

Cc1nc(C)c(COc2ccc(COC(=O)c3cccnc3)cc2)nc1C
EC50 (Thoracic aorta): 379 µM

COc1ccc(/C=C/c2nc(C)c(C)nc2C)c(OC)c1OC
EC50 (HUVEC [17]): 5.76 µM

Cc1nc(C)c(C(=O)NC(=N)NCc2ccc(Cl)c(Cl)c2)nc1C
EC50 (ECV-304 [2]): 94 µM

Cc1nc(C)c(COC(=O)CC[C@@H](C)[C@H]2CC[C@H]3[C@@H]4CC[C@@H]5C[C@H](O)CC[C@]5(C)[C@H]4C[C@H](O)[C@]23C)nc1C
IC50 (HCT-8): 7.43 mg/L (≈ 14.1 µM) | IC50 (A549): 6.69 mg/L (≈ 12.7 µM) | IC50 (BGC-823): 6.66 mg/L | IC50 (Bel-7402 [10]): 8.01 mg/L (≈ 15.2 µM) | IC50 (A2780): 6.62 mg/L (≈ 12.6 µM)

COc1cccc(/C=C/c2nc(C)c(C)nc2C)c1O
EC50 (HUVEC [17]): 28.9 µM

Cc1nc(C)c(COc2ccc(N3CC(CNC(=O)CCl)OC3=O)cc2)nc1C (configuration not stated)
MIC [19]: 8 mg/L (≈ 19.1 µM) | MIC (Staphylococcus aureus): 8 mg/L (≈ 19.1 µM)

Cc1nc(C)c(CNC(=O)C(O)c2ccccc2)nc1C (configuration not stated)
EC50 (HUVEC [11]): 55 µM

COc1ccc(/C=C/C(=O)NCc2nc(C)c(C)nc2C)c(OC)c1OC
EC50 (PC-12 [12]): 25 µM

Cc1nc(C)c(COC(=O)[C@]23CCC(C)(C)C[C@H]2C2=CC[C@@H]4[C@@]5(C)CC[C@H](OC(=O)CN)C(C)(C)[C@@H]5CC[C@@]4(C)[C@]2(C)CC3)nc1C
IC50 (MDCK [13]): 4.88 µM | IC50 (BGC-823): 3.06 µM | IC50 (HeLa [14]): 3.26 µM | IC50 (HT-29 [15]): 2.5 µM | IC50 (HepG2 [16]): 2 µM

COc1cc(/C=C/C(=O)CC(=O)/C=C/c2ccc(O)c(OC)c2)ccc1O [CURCUMIN]
IC50 (HCT-8): 6.28 mg/L (≈ 17 µM) | IC50 (A549): 6.52 mg/L (≈ 17.7 µM) | IC50 (BGC-823): 6.81 mg/L | IC50 (Bel-7402 [10]): 6.5 mg/L (≈ 17.6 µM) | IC50 (A2780): 6.52 mg/L (≈ 17.7 µM)

Cc1nc(C)c(C)nc1C [LIGUSTRAZINE]
EC50 (PC-12 [12]): 60 to 64.5 µM | IC50 (HT-29 [3]): > 20 µM | EC50 (HUVEC [17]): 788 µM | EC50 (ECV-304 [2]): 549 µM | IC50 (Bel-7402 [5]): > 20 µM | EC50 (Thoracic aorta): 2330 µM | IC50 (HeLa [7]): > 20 µM | IC50 (MCF7): > 20 µM | IC50 (HepG2 [8]): > 20 µM | EC50 (PC-12 [9]): 64.5 µM | EC50 (HUVEC [11]): 600 µM

COc1ccc(C(=O)NCc2cccnc2)cc1C(=O)NCc1cccnc1 [PICOTAMIDE]
IC50 (Platelet): 49900 µM

O=C(O)c1cc(O)c2c(c1)C(=O)c1cccc(O)c1C2=O [RHEIN]
inhibition in vivo at 100 mg/kg (Mus musculus): 65.5%

— ChEMBL document CHEMBL4145538, “Recent progress in the structural modification and pharmacological activities of ligustrazine derivatives” (Eur J Med Chem, 2018)
